In patent US7858738B2, “Synthetic human peptides and pharmaceutical compositions comprising them for the treatment of systemic lupus erythematosus” (Yeda Research and Development Co., Ltd., priority 2001, dated 2010):

Assays:
PBL of SLE patients = assay: Proliferation of PBL of SLE patients stimulated with the mitogen PHA; type: cell-based, human; conditions: PBL of one SLE patient; PHA 2 μg/ml; FIG. 5
Method: To this end the peptides hCDR1 or hCDR3 were added to cultures of PBL of SLE patients that were stimulated with the mitogen phytohemagglutinin (PHA, 2 μg/ml).

(NZB×NZW)F1 mice [1] = assay: Treatment of established SLE-like disease in (NZB×NZW)F1 mice; type: in vivo; conditions: for anti-dsDNA autoantibody O.D. values: sera 1:1250, end of treatment, PBS-treated 0.586±0.1
Method: (§1) Induction and treatment of experimental SLE. In order to induce experimental SLE, BALB/c mice were immunized with 1-2 μg of the human mAb 16/6Id and boosted 3 weeks later. For the prevention of experimental SLE, mice were given hCDR1 or hCDR3 (mCDR1 or revmCDR1 as control peptide in Example 12) intravenously (i.v.) or s.c. concomitant with the immunization, and were injected weekly thereafter for 5 weeks. Treatment of an established disease started three and a half months following disease induction with the 16/6Id, when clinical manifestations were already observed. In Example 12, mice received 10 weekly injections (i.v. or s.c.) of mCDR1 or revmCDR1 at a dose of 100 μg/mouse. Prevention and treatment of SLE-like disease in (NZB×NZW)F1 mice with the hCDR1 or mCDR1 peptide. For prevention of SLE, mice at the age of 2 months, before disease manifestations are observed, were injected s.c. with hCDR1 (or mCDR1 in Example 12, 250 μg/mouse) once a week for 10 weeks. To treat an established disease, mice at the age of 5-7 months were injected with hCDR1 (in Example 12, mCDR1 s.c., 250 μg/mouse) once a week for 10 weeks. Proliferative Responses. PBL were isolated from heparinized venous blood by Ficoll-Hypaque (Pharmacia) density-gradient centrifugation. All assays were performed, in triplicate, in flat-bottomed microtiter plates (Falcon, Becton Dickinson, Oxmard, Calif., USA) in which 2×10^5 PBL were cultured in enriched RPMI-1640 as described (Dayan et al., 2000). The PBL were exposed to various concentrations (0.1-40 μg/well) of the human anti-DNA 16/6Id mAb with and without the addition of the various CDR-based peptides at a concentration of at least 10-fold excess over that of the 16/6Id. Phytohemagglutinin (PHA; 2 μg/well) was used as a control for culture conditions at each experiment. The cultures were incubated in 7.5% CO2 at 37° C. for 6 days. Eighteen hours before the cells were harvested, [^3H]-thymidine (0.5μ Ci of 5 Ci/mmol) (Nuclear Research Center, Negev, Israel) was added to all cultures. Results are expressed as the mean thymidine incorporation in counts per minute (CPM) of triplicate culture±SD, or as stimulation index (S.I.; the ratio of mean CPM at the optimal concentration of the human 16/6Id to the mean CPM in the presence of medium alone). A S.I.≧2 was considered a positive response (Dayan et al., 2000). Inhibition (the ratio of mean CPM in the presence of the 16/6Id and various CDR-based peptides to the mean CPM with the 16/6Id without the CDR-based peptide) above 50% was considered positive. Induction of Cytokine Production. Mice that were immunized with the human 16/6Id mAb and either treated or not with the CDR-based peptide, were killed at different periods during or after treatment with the peptide. Splenocytes and lymph node cells (LNC) were harvested and incubated (5×10^6/ml) in the presence of the 16/6Id. Supernatants were collected after 48 and 72 h. Assessment of Cytokines in the Supernatants. Supernatants were collected 48 hours following the initiation of the cultures and stored at −70° C. Measurements of IL-2, IL-10, IFN-γ, and TNF-α were performed by ELISA by using the relevant standards, capture and detecting Abs (Pharmingen) according to the manufacturer's instructions. TGF-β was determined by an ELISA. Briefly, plates were coated with the recombinant human TGF-β1 sRIII/Fc chimera (R & D Systems Inc., Minneapolis, Minn., USA), and the second Ab used was the biotinylated anti-human TGF-β1 antibody (R & D Systems Inc.). The substrate solution used was TMB color Reagent (Helix Diagnostics, West Sacramento, Calif.), and enzyme activity was evaluated by using 570- and 630-nm filters. Detection of SLE-Associated Clinical and Pathological Manifestations. Proteinuria was measured semiquantitatively by using Combistix kit (Ames Division, Bayer Diagnostics, Newbury, U.K.). White blood cells (WBC, for leukopenia) were counted after a 10-fold dilution of heparinized blood in distilled water containing 1% acetic acid (vol/vol). […]

(NZB×NZW)F1 mice [2] = assay: Transfer of splenocytes of peptide-treated mice into (NZB×NZW)F1 mice with full-blown disease; type: in vivo
Description: It was of importance to investigate whether the beneficial effects of treatment with hCDR1, that are manifested by the down-regulation of disease manifestations, can be transferred by spleen cells of treated mice. To this end, we have performed an experiment in which 8-month old (NZB×NZW)F1 mice, that suffer already from the full-blown lupus-like disease, were divided into 2 groups. Group 1 was not treated and mice of group 2 were transferred with 20×10^6 spleen cells of 3-month old (NZB×NZW)F1 mice that were injected 3 times (s.c., every other day) with 300 μg/mouse of hCDR1. All splenocytes were injected intraperitoneally. Mice were tested for anti-dsDNA autoantibody production, disease manifestations, and were sacrificed 4 weeks after cell transfer.
The experiment was repeated a few more times using revhCDR1 as control.

MMP-9 = MMP-9 activity in sera of (NZB×NZW)F1 mice (gel zymography); type: in vivo; conditions: 300 μg s.c. once a week from age 7 months; sera after 5 injections; FIG. 23
Method: as §1, with “A S.I.≧2 was considered a positive response (Dayan et al., 2000). Inhibition (the ratio of mean CPM in the presence of the 16/6Id and various CDR-based peptides to the mean CPM with the 16/6Id without the CDR-based peptide) above 50% was considered positive. Induction of Cytokine Production. Mice that were immunized with the human 16/6Id mAb and either treated or not with the CDR-based peptide, were killed at different periods during or after treatment with the peptide. Splenocytes and lymph node cells (LNC) were harvested and incubated (5×10^6/ml) in the presence of the 16/6Id. Supernatants were collected after 48 and 72 h. Assessment of Cytokines in the Supernatants. Supernatants were collected 48 hours following the initiation of the cultures and stored at −70° C. Measurements of IL-2, IL-10, IFN-γ, and TNF-α were performed by ELISA by using the relevant standards, capture and detecting Abs (Pharmingen) according to the manufacturer's instructions.” left out, “Briefly, plates were coated with the recombinant human TGF-β1 sRIII/Fc chimera (R & D Systems Inc., Minneapolis, Minn., USA), and the second Ab used was the biotinylated anti-human TGF-β1 antibody (R & D Systems Inc.).” left out, “Detection of SLE-Associated Clinical and Pathological Manifestations.” left out

[3] = age 7 months, 10 weeks, 100 μg/mouse or 300 μg/mouse

GYYWSWIRQPPGKGEEWIG (Human) [hCDR1, 19-mer peptide based on the CDR1 of the heavy chain of the human 16/6Id mAb]
inhibition of the proliferative responses of the PBL to the mitogen PHA (PBL of SLE patients): could not inhibit | anti-dsDNA autoantibody O.D. values ((NZB×NZW)F1 mice [1]; 50 μg/mouse s.c. weekly for 10 weeks from age 5 and a half months): 0.27±0.1 O.D. | number and intensity of immune complexes in kidney sections ((NZB×NZW)F1 mice [1]; 100 μg dose, mice sacrificed at 9 months, FIGS. 11A-11D): reduced the number of immune complexes as well as their intensity | anti-dsDNA autoantibody O.D. values ((NZB×NZW)F1 mice [1]; 100 μg/mouse s.c. weekly for 10 weeks from age 5 and a half months): 0.37±0.1 O.D. | anti-dsDNA autoantibody O.D. values ((NZB×NZW)F1 mice [1]; 200 μg/mouse s.c. weekly for 10 weeks from age 5 and a half months): 0.29±0.1 O.D. | Proteinuria g/L ± SEM ((NZB×NZW)F1 mice [1]; 300 μg/mouse s.c. weekly for 10 weeks at the age of 7 months, untreated 4.80 ± 2.56): 1.08 ± 0.38 g/L | Proteinuria g/L ± SEM ((NZB×NZW)F1 mice [1]; 300 μg/mouse, age 7 months, following treatment No 5, untreated 2.65 ± 1.76): 0.61 ± 0.23 g/L | Proteinuria g/L ± SEM ((NZB×NZW)F1 mice [1]; 300 μg/mouse, age 7 months, following treatment No 7, untreated 3.89 ± 2.73): 0.65 ± 0.32 g/L | Proteinuria g/L ± SEM ((NZB×NZW)F1 mice [1]; 300 μg/mouse, age 7 months, following treatment No 9, untreated 7.55 ± 3.95): 1.02 ± 0.39 g/L | Immune Complex Deposits ± SEM ((NZB×NZW)F1 mice [1]; 300 μg/mouse, age 7 months, intensity 0=no ICD to 3=severe and extremely intense ICD, untreated 2.57 ± 0.29, p = 0.035): 1.44 ± 0.41 | Proteinuria g/L ± SEM ((NZB×NZW)F1 mice [1]; 400 μg/mouse at the age of 6 months, untreated 4.99 ± 2.53): 0.77 ± 0.32 g/L | Immune Complex Deposits ± SEM ((NZB×NZW)F1 mice [1]; 400 μg/mouse, age 6 months, intensity score 0-3, untreated 2 ± 0.29, p = 0.05): 1.42 ± 0.19 | anti-DNA antibody titers in sera ((NZB×NZW)F1 mice [1]; 7-month old mice, 300 μg s.c. weekly for 10 weeks): mild reduction | anti-dsDNA autoantibody titers ((NZB×NZW)F1 mice [1]; 50, 100 and 200 μg/mouse s.c. weekly for 10 weeks from age 5 and a half months): moderate reduction | anti-DNA autoantibody titers ((NZB×NZW)F1 mice [1]; [3]): moderate reduction | proteinuria in comparison to the PBS-treated group ((NZB×NZW)F1 mice [1]; [3]): reduction | kidney disease ((NZB×NZW)F1 mice [1]; age 7 months, 10 weeks, 100 or 300 μg/mouse, more significant effect with 300 μg): ameliorated | kidney disease ((NZB×NZW)F1 mice [1]; ten-week treatment, 50 μg dose less efficient than 100 and 200 μg): reduced significantly | Proteinuria g/L ± SEM ((NZB×NZW)F1 mice [2]; Table 13, recipients of 20 × 10^6 spleen cells from mice treated 3 times s.c. with 300 μg/mouse, non-treated 15.07 ± 4.92): 0.97 ± 0.67 g/L | I.C.D ± SEM ((NZB×NZW)F1 mice [2]; Table 13, recipients of 20 × 10^6 spleen cells from treated mice, non-treated 2.25 ± 0.47): 0.75 ± 0.47 | I.C.D ± SEM ((NZB×NZW)F1 mice [2]; Table 14 (repeat experiment), recipients of 20 × 10^6 spleen cells from treated mice, non-treated 2.3 ± 0.26): 1.33 ± 0.35 | Proteinuria g/L ± SEM ((NZB×NZW)F1 mice [2]; Table 14 (repeat experiment), recipients of 20 × 10^6 spleen cells from treated mice, non-treated 10.9 ± 3.05): 2.91 ± 1.6 g/L | levels of anti-DNA antibodies ((NZB×NZW)F1 mice [2]; transfer of cells of treated mice, 4 weeks after cell transfer): mild reduction | activity of MMP-9 in pooled sera (MMP-9): down regulated

YYCARGLLRGGWNDVDYYGMDV (Human) [hCDR3, peptide based on the CDR3 of the heavy chain of the human 16/6Id mAb]
inhibition of the proliferative responses of the PBL to the mitogen PHA (PBL of SLE patients): could not inhibit
